In ChEMBL document CHEMBL1158672, “Rubrobramide, a cytotoxic and phytotoxic metabolite from Cladobotyrum rubrobrunnescens” (1998):
≈ marks a conversion by molar mass, not a printed value. Calls of active or inactive are those of the source. The rule behind the calls is not given here.

Key:
[1] = tested on: Meloidogyne incognita; test: Nematicidal activity against Meloidogyne incognita up to 100 ug/mL; format: functional, organism-based
[2] = tested on: HL-60; test: Cytotoxicity against human HL60 cells up to 100 ug/mL; format: functional, cell-based
[3] = tested on: HeLa S3; test: Cytotoxicity against human HeLaS3 cells up to 100 ug/mL; format: functional, cell-based
[4] = tested on: L1210; test: Antiproliferative activity against mouse L1210 cells at 50 ug/mL; format: functional
[5] = tested on: Lepidium sativum; test: Phytotoxicity against Lepidium sativum assessed as inhibition of seedling germination at 100 ug/mL; format: functional; set-up: scale not given: the % may be the effect or the level left
[6] = tested on: Setaria italica; test: Phytotoxicity against Setaria italica assessed as inhibition of seedling germination at 100 ug/mL; format: functional; set-up: scale not given: the % may be the effect or the level left
[7] = tested on: Meloidogyne incognita; test: Nematicidal activity against Meloidogyne incognita; format: functional; details: read-out: LD50 (the source's name)

Structure (SMILES) | Activity [1] | Activity [2] | Activity [3] | Activity [4] | Activity [5] | Activity [6] | LC50 [7]
CC(C)C[C@]12NC(=O)[C@@]3(O)C(=O)C[C@](C)(O[C@H]31)O2 [RUBROBRAMIDE] | inactive | inactive | inactive | 50% | 50% | 50% | 
COc1c(-c2ccco2)coc(=O)c1C [CLADOBOTRIN] |  |  |  |  |  |  | 100 µg/mL (≈ 485 µM)
